In PMC11079024, “Identification of a family of species-selective complex I inhibitors as potential anthelmintics” (Nature Communications, 2024):
Where two headings read alike, the source gives them in different places.

How the values were obtained:
[1] = target: C. elegans (N2) complex I (NADH:ubiquinone oxidoreductase) (Caenorhabditis elegans, UniProt P24887+Q93873+Q94360); test: biochemical; assay type: biochemical; settings: for activity at 0.0001 µM / activity at 0.0005 µM / activity at 0.001 µM / activity at 0.0025 µM / activity at 0.005 µM / activity at 0.013 µM / activity at 0.025 µM / activity at 0.063 µM / activity at 0.125 µM / activity at 0.313 µM / activity at 0.625 µM / activity at 1.5 µM / activity at 3 µM / activity at 15 µM / activity at 37.5 µM / activity at 75 µM: read-out: C. elegans mitochondrial complex I activity; for Log IC50 C. elegans complex I: log10 of IC50 in µM, C. elegans mitochondria
C. elegans (N2) complex I (NADH:ubiquinone oxidoreductase), sequence (Q94360 17-199): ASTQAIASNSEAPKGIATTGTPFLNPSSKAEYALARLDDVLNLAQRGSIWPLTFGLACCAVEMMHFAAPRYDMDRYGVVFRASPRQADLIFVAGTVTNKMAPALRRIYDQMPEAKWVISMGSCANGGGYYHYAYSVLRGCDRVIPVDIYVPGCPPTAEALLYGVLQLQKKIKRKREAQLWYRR
C. elegans (N2) complex I (NADH:ubiquinone oxidoreductase), sequence (P24887 whole entry): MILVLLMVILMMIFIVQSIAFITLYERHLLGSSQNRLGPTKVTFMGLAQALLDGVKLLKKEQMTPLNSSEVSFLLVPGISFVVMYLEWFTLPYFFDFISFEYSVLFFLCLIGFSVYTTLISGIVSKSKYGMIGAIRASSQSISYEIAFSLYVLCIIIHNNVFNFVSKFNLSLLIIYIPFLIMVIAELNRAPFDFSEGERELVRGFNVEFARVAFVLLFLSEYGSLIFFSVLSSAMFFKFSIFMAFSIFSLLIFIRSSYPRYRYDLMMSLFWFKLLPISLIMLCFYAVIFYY
C. elegans (N2) complex I (NADH:ubiquinone oxidoreductase), sequence (Q93873 31-482): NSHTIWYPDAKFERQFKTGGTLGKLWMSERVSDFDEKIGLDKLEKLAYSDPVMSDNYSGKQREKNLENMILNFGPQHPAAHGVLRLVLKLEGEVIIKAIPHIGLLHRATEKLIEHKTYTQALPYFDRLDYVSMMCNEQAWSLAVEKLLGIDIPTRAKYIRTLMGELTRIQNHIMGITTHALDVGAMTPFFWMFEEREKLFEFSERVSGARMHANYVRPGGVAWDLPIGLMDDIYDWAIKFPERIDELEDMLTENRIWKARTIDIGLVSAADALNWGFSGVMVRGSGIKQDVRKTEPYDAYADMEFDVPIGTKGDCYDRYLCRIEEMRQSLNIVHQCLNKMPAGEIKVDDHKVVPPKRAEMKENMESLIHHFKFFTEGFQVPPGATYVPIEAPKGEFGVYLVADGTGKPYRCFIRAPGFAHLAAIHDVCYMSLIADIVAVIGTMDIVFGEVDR
Outline: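 Activity expressed as percent of solvent control. Complex I rate came from DCIP reduction at 600 nm (initial linear slope, 15 min) with NADH and decylubiquinone as substrates, plus antimycin A and KCN, in pH 7.5 KPi/BSA buffer. Isolated, thrice freeze-thawed mitochondria used at 0.2 mg/mL.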

[2] = target: B. taurus (heart) complex I (Bos taurus, UniProt P03887+P17694+P42026); test: biochemical; assay type: biochemical; settings: for IC50: B. taurus heart mitochondria, read-out: B. taurus Complex I IC50; for activity at 0.0001 µM / activity at 0.0005 µM / activity at 0.001 µM / activity at 0.0025 µM / activity at 0.005 µM / activity at 0.013 µM / activity at 0.025 µM / activity at 0.063 µM / activity at 0.125 µM / activity at 0.313 µM / activity at 0.625 µM / activity at 1.5 µM / activity at 3 µM / activity at 15 µM / activity at 37.5 µM / activity at 75 µM: read-out: B. taurus mitochondrial complex I activity; for Log IC50 B. taurus complex I: log10 of IC50 in µM, B. taurus mitochondria
B. taurus (heart) complex I, sequence (P03887 whole entry): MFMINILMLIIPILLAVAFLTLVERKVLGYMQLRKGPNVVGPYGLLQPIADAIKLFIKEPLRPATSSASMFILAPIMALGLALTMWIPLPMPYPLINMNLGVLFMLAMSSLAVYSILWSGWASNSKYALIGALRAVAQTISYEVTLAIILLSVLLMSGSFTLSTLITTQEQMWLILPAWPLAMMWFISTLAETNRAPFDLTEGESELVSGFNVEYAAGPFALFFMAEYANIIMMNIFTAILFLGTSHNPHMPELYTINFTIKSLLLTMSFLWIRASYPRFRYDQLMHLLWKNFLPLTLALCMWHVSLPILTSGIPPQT
B. taurus (heart) complex I, sequence (P17694 34-463): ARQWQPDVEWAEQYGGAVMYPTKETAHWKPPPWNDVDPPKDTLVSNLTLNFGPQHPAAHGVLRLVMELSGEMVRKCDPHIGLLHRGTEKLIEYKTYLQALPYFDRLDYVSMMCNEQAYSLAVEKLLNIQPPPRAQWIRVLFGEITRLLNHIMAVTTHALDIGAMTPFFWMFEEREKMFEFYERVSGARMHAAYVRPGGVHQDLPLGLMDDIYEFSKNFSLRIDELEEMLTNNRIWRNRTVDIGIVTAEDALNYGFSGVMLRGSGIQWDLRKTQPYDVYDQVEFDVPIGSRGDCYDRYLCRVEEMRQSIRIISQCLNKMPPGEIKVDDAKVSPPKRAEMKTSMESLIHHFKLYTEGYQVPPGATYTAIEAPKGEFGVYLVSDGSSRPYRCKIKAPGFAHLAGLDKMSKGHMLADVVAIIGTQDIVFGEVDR
B. taurus (heart) complex I, sequence (P42026 38-216): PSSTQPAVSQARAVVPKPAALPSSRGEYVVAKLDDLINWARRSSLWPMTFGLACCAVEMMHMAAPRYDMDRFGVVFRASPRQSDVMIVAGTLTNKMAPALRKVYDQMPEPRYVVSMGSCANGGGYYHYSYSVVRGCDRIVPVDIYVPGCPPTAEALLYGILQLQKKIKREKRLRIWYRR
Outline: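 Complex I activity followed as DCIP reduction (600 nm, 30 s reads, 15 min) with 80 μM NADH and 60 μM decylubiquinone in 25 mM KPi pH 7.5 containing 2 μM antimycin A and 2 mM KCN. Freeze-thawed mouse or bovine heart mitochondria at 0.2 mg/mL; initial-rate percent of solvent control, single-point 100 μM or dose-response.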

[3] = in vitro complex I dose response on C. elegans mitochondria, average of at least two biological replicates, fit in R (DRC), read-out: IC50 C. elegans complex I
[4] = wild-type C. elegans mitochondria, read-out: C. elegans Complex I IC50
[5] = wild-type C. elegans mitochondria, estimated from fitted dose-response curves, read-out: C. elegans Complex I IC50
[6] = estimated from fitted dose-response curves
[7] = wild-type (N2) mitochondria, read-out: C. elegans Complex I IC50

SMILES | activity at 0.0001 µM [1] | activity at 0.0005 µM [1] | activity at 0.001 µM [1] | activity at 0.0025 µM [1] | activity at 0.005 µM [1] | activity at 0.013 µM [1] | activity at 0.025 µM [1] | activity at 0.063 µM [1] | activity at 0.125 µM [1] | activity at 0.313 µM [1] | activity at 0.625 µM [1] | activity at 1.5 µM [1] | activity at 3 µM [1] | activity at 15 µM [1] | activity at 37.5 µM [1] | IC50 [1, 3] | Log IC50 C. elegans complex I [1] | Log IC50 B. taurus complex I [2] | IC50 [1, 5] | IC50 [2, 6] | also measured
Nc1nc2ccccc2n1CCOc1ccc(Br)cc1 [Compound 5842535] | 80% | 92.9% | 87.5% | 88.5% | 89.3% | 88.3% | 81.7% | 79.5% | 81.6% | 76.9% | 83.9% | 76.4% | 65% | 17.8% | 0.13% | 6200 nM | 0.79 µM | 1.10 µM |  |  | activity at 75 µM [1]: 0%; IC50 [1, 4]: 6200 nM; IC50 [2]: 12700 nM; activity at 0.0001 µM [2]: 89.6%; activity at 0.0005 µM [2]: 91.9%; activity at 0.001 µM [2]: 90.7%; activity at 0.0025 µM [2]: 94.2%; activity at 0.005 µM [2]: 96.1%; activity at 0.013 µM [2]: 92.4%; activity at 0.025 µM [2]: 87.8%; activity at 0.063 µM [2]: 92.4%; activity at 0.125 µM [2]: 92%; activity at 0.313 µM [2]: 85.5%; activity at 0.625 µM [2]: 84.7%; activity at 1.5 µM [2]: 82.8%; activity at 3 µM [2]: 67.2%; activity at 15 µM [2]: 33.6%; activity at 37.5 µM [2]: 3.2%; activity at 75 µM [2]: 1.7%
c1ccc(CCCCCCCCCCc2nc3ccccc3[nH]2)cc1 [STL442376] |  |  |  |  |  |  |  |  |  |  |  |  |  |  |  | 2330 nM | 0.37 µM | 0.52 µM | 2330 nM | 3320 nM | 
C=CCn1c(-c2ccc(N(C)C)cc2)nc2ccccc21 [Compound 6873298] |  |  |  |  |  |  |  |  |  |  |  |  |  |  |  | 13200 nM | 1.12 µM | 1.32 µM | 13200 nM | 21000 nM | 
Cc1nc2ccccc2n1CCOc1ccccc1Cl [Compound 5561642] | 91.5% | 94% | 89.2% | 95% | 93.1% | 84.7% | 83.1% | 81.1% | 84.1% | 65.5% | 71.7% | 51.9% | 40.7% | 12.4% | 4.46% | 2350 nM | 0.37 µM | 0.91 µM |  |  | activity at 75 µM [1]: 4.41%; IC50 [1, 4]: 2350 nM; IC50 [2]: 8050 nM; activity at 0.0001 µM [2]: 88.4%; activity at 0.0005 µM [2]: 88.9%; activity at 0.001 µM [2]: 90.3%; activity at 0.0025 µM [2]: 85.7%; activity at 0.005 µM [2]: 90.4%; activity at 0.013 µM [2]: 86.9%; activity at 0.025 µM [2]: 83.6%; activity at 0.063 µM [2]: 88.9%; activity at 0.125 µM [2]: 88.4%; activity at 0.313 µM [2]: 83.2%; activity at 0.625 µM [2]: 86.2%; activity at 1.5 µM [2]: 75.9%; activity at 3 µM [2]: 63.2%; activity at 15 µM [2]: 29.8%; activity at 37.5 µM [2]: 11.9%; activity at 75 µM [2]: 6%
CCn1c(C(C)c2ccc(CC(C)C)cc2)nc2ccccc21 (stereo not shown) [STK951902] |  |  |  |  |  |  |  |  |  |  |  |  |  |  |  | 1830 nM | 0.26 µM | 1.10 µM | 1830 nM | 12500 nM | IC50 [1, 7]: 1830 nM
Cc1cccc(OCCn2c(C)nc3ccccc32)c1 [Compound 6285199] | 94.3% | 99.3% | 86.9% | 85.8% | 87.6% | 90.6% | 92.4% | 78.1% | 81.6% | 54.6% | 53.7% | 35.3% | 23.4% | 3.64% | 1.37% | 840 nM | -0.0757 µM | 0.70 µM | 840 nM | 4970 nM | activity at 75 µM [1]: 1.88%; activity at 0.0001 µM [2]: 98.3%; activity at 0.0005 µM [2]: 97.3%; activity at 0.001 µM [2]: 100%; activity at 0.0025 µM [2]: 95.3%; activity at 0.005 µM [2]: 95.1%; activity at 0.013 µM [2]: 97.1%; activity at 0.025 µM [2]: 95.3%; activity at 0.063 µM [2]: 88.5%; activity at 0.125 µM [2]: 87.7%; activity at 0.313 µM [2]: 83.8%; activity at 0.625 µM [2]: 79%; activity at 1.5 µM [2]: 67.9%; activity at 3 µM [2]: 54%; activity at 15 µM [2]: 18.4%; activity at 37.5 µM [2]: 5.61%; activity at 75 µM [2]: 1.08%
CCCOc1ccc(Cn2cnc3ccccc32)cc1 [Compound 7355741] | 85.2% | 94.7% | 89.8% | 99% | 86.1% | 94.6% | 90.6% | 82.3% | 77.2% | 62.4% | 47.9% | 31.8% | 15.1% | 3.6% | 5.38% | 620 nM | -0.21 µM | 0.49 µM | 620 nM | 3070 nM | activity at 75 µM [1]: 7.89%; IC50 [1, 7]: 620 nM; activity at 0.0001 µM [2]: 95.3%; activity at 0.0005 µM [2]: 97.8%; activity at 0.001 µM [2]: 102%; activity at 0.0025 µM [2]: 105%; activity at 0.005 µM [2]: 102%; activity at 0.013 µM [2]: 104%; activity at 0.025 µM [2]: 109%; activity at 0.063 µM [2]: 57.4%; activity at 0.125 µM [2]: 101%; activity at 0.313 µM [2]: 97.1%; activity at 0.625 µM [2]: 86%; activity at 1.5 µM [2]: 75.9%; activity at 3 µM [2]: 37%; activity at 15 µM [2]: 13.2%; activity at 37.5 µM [2]: 1.26%; activity at 75 µM [2]: 2.32%
Cc1nc2ccccc2n1Cc1ccc(C(C)C)cc1 [Compound 7353551] |  |  |  |  |  |  |  |  |  |  |  |  |  |  |  | 430 nM | -0.37 µM | 0.20 µM | 430 nM | 1570 nM | IC50 [1, 7]: 430 nM
Clc1ccc(OCCn2cnc3ccccc32)c(Cl)c1 [Compound 7221649] | 92.4% | 97.1% | 98.6% | 106% | 107% | 101% | 101% | 94.8% | 93.4% | 89.3% | 84.8% | 71.9% | 58.5% | 22.2% | 11.4% | 4190 nM | 0.62 µM | 1.03 µM |  |  | activity at 75 µM [1]: 6.54%; IC50 [1, 4]: 4190 nM; IC50 [2]: 10700 nM; activity at 0.0001 µM [2]: 92.5%; activity at 0.0005 µM [2]: 88.5%; activity at 0.001 µM [2]: 89.7%; activity at 0.0025 µM [2]: 97.8%; activity at 0.005 µM [2]: 98.8%; activity at 0.013 µM [2]: 94.3%; activity at 0.025 µM [2]: 92%; activity at 0.063 µM [2]: 90.2%; activity at 0.125 µM [2]: 86.5%; activity at 0.313 µM [2]: 88%; activity at 0.625 µM [2]: 83.9%; activity at 1.5 µM [2]: 85.6%; activity at 3 µM [2]: 77.8%; activity at 15 µM [2]: 33%; activity at 37.5 µM [2]: 7.81%; activity at 75 µM [2]: 3.92%
